Data as given in US7351882B2, “Canola line 45H24” (Pioneer Hi-Bred International, Inc., priority 2005, dated 2008).

System: Brassica napus variety 45H24
Assay: Herbicide resistance rating of canola variety 45H24 at standard recommended application rates
Type: in vivo
Details: for Herbicide resistance (description): result in words
From the text: Herbicide Resistance: Resistance to various herbicides when applied at standard recommended application rates is expressed on a scale of 1 (resistant), 2 (tolerant), or 3 (susceptible).

## O=C(O)CNCP(=O)(O)O [Glyphosate]
  Herbicide resistance (description): resistant
Listed as glyphosate
  Herbicide resistance (description): resistance
Scale 0 = not tested, 1 = resistant, 2 = tolerant, 3 = susceptible
  Herbicide resistance (mean rating): 1.00
